Tests used:
U87 spheroids [1] = test: live/dead viability assay of U87 spheroids at 48 hours
Method: (§1) The spheroids were subjected to drug testing at varying concentrations, with DMSO serving as a solvent control. This experimental approach aimed to dissect the impact of both DMSO and drug compounds on the metabolic activity and viability of U87 spheroids.
(§2) Control tests were first conducted with DMSO at concentrations of 1%, 2.5%, 5%, 10%, and 20% (v/v) to assess its cytotoxic effects independently of drug action. The metabolic activity of the spheroids was monitored at 0, 6, 12, 24, and 48 hours, followed by a live/dead assay at 48 hours to assess cell viability.
(§3) Spheroid metabolic activity was measured at 6, 12, 24, and 48 hours using the WST-1 assay, and viability was assessed at 48 hours via the live/dead assay.

U87 spheroids [2] = test: WST-1 metabolic activity of U87 spheroids under drug or DMSO treatment; type: cell-based
Method: as §1, §2, §3

in vitro = conditions: human
Method: as §1, §2, §3

With `Cn1nnc2c(C(N)=O)ncn2c1=O` [TMZ] the viability (U87 spheroids [1]; 400 μM) was “below 30%”, the viability (U87 spheroids [1]; 800 μM) was “below 30%” and the “metabolic activity and viability compared to normally grown spheroids” value (U87 spheroids [2]; cryopreserved spheroids, comparable doses) was “slightly higher metabolic activity and viability”. For the same compound, the response timing (U87 spheroids [2]; cryopreserved spheroids, more substantial reductions at 400 μM and 800 μM) was “slightly delayed responses” and the metabolic activity (U87 spheroids [2]; doses ≥100 μM, both normal and cryopreserved spheroids) was “metabolic activity was suppressed”.
Compound `C[S+](C)[O-]` [DMSO, dimethyl sulfoxide] has a viability at 48 h, 1 % (v/v) (in vitro) greater than 99%, a viability at 48 h, 5 % (v/v) (in vitro) greater than 99% and a viability at 48 h, 10 % (v/v) (in vitro) of less than 50%. The viability at 48 h, 20 % (v/v) (in vitro) was 5%, the cell viability (U87 spheroids [1]; 10% and 20% DMSO, particularly in cryopreserved samples) was “viability decreased” and the metabolic activity (U87 spheroids [2]; cryopreserved spheroids, 10% and 20% DMSO) was “declining sharply”. For the same compound, the metabolic activity (U87 spheroids [2]; normally grown spheroids, 1% DMSO (v/v), over 48 hours) was “linear increase in metabolic activity” and the metabolic activity (U87 spheroids [2]; normally grown spheroids, higher concentrations (5%, 10%, 20% DMSO)) was “temporary reductions in metabolic activity at the 6-hour mark, followed by partial recovery”.
In the case of `N.N.[Cl][Pt][Cl]` [Cisplatin], the “response at higher doses” value (U87 spheroids [2]; cryopreserved spheroids, 10 μM and above) was “delayed response”, the metabolic activity (U87 spheroids [2]; cryopreserved spheroids, doses as low as 0.1 μM) was “metabolic activity decreasing” and the metabolic activity (U87 spheroids [2]; normally grown spheroids, doses ≥10 μM) was “significantly reduced metabolic activity”.

Reference: patent US20250127159A1, “PAPER-BASED CRYOPRESERVATION OF MAMMALIAN CELL AGGREGATES” (New York University in Abu Dhabi Corporation, priority 2023, published 2025)
